This assay deals with Prostaglandin E2 (PGE2). Put plainly: Serum Prostaglandin E2 after 6 weeks subcutaneous infusion of VD in Dahl/SS rats. In kind it is in vivo, rat. To be noted: 4% salt diet. The source says:
The pharmacodynamic effects of VD were investigated in a rat model. Forty male Dahl/SS rats were shipped to the animal facilities at PhysioGenix, Inc. (Milwaukee, Wis.). The rats were maintained on a low-salt diet and allowed to acclimate. After acclimation, animals had baseline parameters collected while on the low-salt diet. Animals were then randomly assigned to one of 4 groups (10 animals per group):
1. Vehicle Control; low-salt diet, n=10 2. Vehicle Control; 4% salt diet, n=10 3. Vessel dilator, 100 ng/kg/min infusion of VD, 4% salt diet, n=10 4. Vessel dilator, 300 ng/kg/min infusion of VD, 4% salt diet, n=10
Lyophilized VD peptide (Bachem) was reconstituted in a Tris buffer having the same composition as the Tris buffer of Example 1. The vehicle control groups were infused with a citrate-mannitol-saline buffer (0.66 mg/mL citric acid, 6.43 mg/mL sodium citrate, 40 mg/mL mannitol, 9 mg/mL NaCl). The animals were on a Teklad 7034 (low-salt) diet or Dyets AIN-76A 4% salt diet, as indicated, throughout a 6 week course of the study and had free access to water. […]
Alzet® minipumps (Durect, Corp.) were surgically implanted on Days 1, 15, and 29 of the study to maintain continuous vehicle or drug dispensing at the desired dose for a total period of 6 weeks. At the end of 6 weeks, the serum content of Prostaglandin E2 (PGE2) was measured.

For the substance “VD: Vessel Dilator, ANP prohormone a.a. 31-67, EVVPPQVLSEPNEEAGAALSPLPEVPPWTGEVSPAQR (SEQ ID No. 4) (listed as Homo sapiens)”, the “PGE2 concentration in serum versus control groups” value is “similar” (SQ infusion 100 ng/kg·min) and “significantly higher than for any of the other 3 groups” (SQ infusion 300 ng/kg·min, p<0.05).

Source of the values: patent US20150038418A1, “NATRIURETIC PEPTIDE COMPOSITIONS AND METHODS OF PREPARATION” (MEDTRONIC, INC., priority 2011, published 2015).
